Key:
[1] = target: MTAN-D198N (Helicobacter pylori, UniProt Q9ZMY2, D198N); conditions: for affinity to MTAN-D198N / displacement of AdoHcy-TAMRA: displacement curves, FIG. 10B
[2] = target: Mycobacterium smegmatis EgtD (Mycolicibacterium smegmatis, UniProt A0R5M8); conditions: isothermal calorimetry, previously determined; cited from earlier work
[3] = target: HpMTAN (Helicobacter pylori, UniProt Q9ZMY2); conditions: previously characterized; cited from earlier work
[4] = test system: N[C@@H](Cc1c[nH]cn1)C(=O)O; test: purified protein, by the assay type; conditions: pH 8.0; 25.0 °C
[5] = target: CIAP (Bos taurus, UniProt P19111); conditions: molybdenum blue-based assay, previous work, cited from earlier work
[6] = target: T1, calf intestinal alkaline phosphatase (CIAP) (Bos taurus, UniProt P19111); test: biochemical
Experimental: (§1) Calf Intestinal Alkaline Phosphatase (CIAP) was obtained from New England Biolabs. […] Reactions were initiated by adding ATP at varying concentrations ranging from 0.1 to 20 μM. Due to the ability of ATP to act as an inhibitor of CIAP at high concentrations, steady-state analysis of the resulting data was fitted to a substrate-inhibition equation in Equation 8, below, using Prism 7.

[7] = target: T1, calf intestinal alkaline phosphatase (CIAP); conditions: read-out: Km of ATP for CIAP; competitive FP assay, 0.25 U/mL CIAP
Experimental: as §1

MTAN-D198N, sequence (Q9ZMY2 whole entry D198N): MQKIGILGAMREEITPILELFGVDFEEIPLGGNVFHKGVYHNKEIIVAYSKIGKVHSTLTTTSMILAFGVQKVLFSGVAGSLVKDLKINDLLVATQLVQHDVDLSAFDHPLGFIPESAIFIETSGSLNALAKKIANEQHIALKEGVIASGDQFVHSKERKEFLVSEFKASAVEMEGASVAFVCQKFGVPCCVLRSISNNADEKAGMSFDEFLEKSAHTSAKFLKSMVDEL
Mycobacterium smegmatis EgtD, sequence (A0R5M8 whole entry): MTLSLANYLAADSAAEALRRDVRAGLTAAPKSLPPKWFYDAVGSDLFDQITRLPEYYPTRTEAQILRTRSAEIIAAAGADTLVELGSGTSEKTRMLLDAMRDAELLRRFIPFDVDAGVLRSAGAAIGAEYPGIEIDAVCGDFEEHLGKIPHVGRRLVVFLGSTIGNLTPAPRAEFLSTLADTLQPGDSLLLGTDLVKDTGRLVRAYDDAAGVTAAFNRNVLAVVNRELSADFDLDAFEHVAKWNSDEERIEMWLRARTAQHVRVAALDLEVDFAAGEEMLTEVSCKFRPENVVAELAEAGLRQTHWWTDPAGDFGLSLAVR
T1 sequence (P19111 20-506): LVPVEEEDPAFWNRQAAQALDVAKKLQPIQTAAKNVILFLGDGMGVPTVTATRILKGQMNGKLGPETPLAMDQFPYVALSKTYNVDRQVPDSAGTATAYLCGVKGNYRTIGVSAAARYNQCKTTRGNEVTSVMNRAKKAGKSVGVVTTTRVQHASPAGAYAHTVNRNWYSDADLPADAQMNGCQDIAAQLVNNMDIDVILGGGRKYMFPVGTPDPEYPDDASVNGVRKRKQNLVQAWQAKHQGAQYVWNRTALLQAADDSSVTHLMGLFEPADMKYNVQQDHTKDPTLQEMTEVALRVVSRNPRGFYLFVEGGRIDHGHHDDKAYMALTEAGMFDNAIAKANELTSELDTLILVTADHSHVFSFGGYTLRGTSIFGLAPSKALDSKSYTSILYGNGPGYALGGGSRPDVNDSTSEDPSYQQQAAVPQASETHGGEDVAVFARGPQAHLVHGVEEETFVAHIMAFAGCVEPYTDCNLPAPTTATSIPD
CIAP, sequence (P19111 20-506): as above
HpMTAN, sequence (Q9ZMY2 whole entry): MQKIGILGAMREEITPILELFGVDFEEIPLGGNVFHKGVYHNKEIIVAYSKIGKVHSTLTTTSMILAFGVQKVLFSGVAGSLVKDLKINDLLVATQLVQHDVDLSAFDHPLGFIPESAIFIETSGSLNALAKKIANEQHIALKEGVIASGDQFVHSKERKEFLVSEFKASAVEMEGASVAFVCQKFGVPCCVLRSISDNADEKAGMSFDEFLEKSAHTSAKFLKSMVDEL

Nc1ncnc2c1ncn2[C@@H]1O[C@H](COP(=O)(O)O)[C@@H](O)[C@H]1O [AMP, adenosine monophosphate]
affinity to MTAN-D198N / displacement of AdoHcy-TAMRA [1]: M affinity

N[C@@H](Cc1c[nH]cn1)C(=O)O [L-histidine]
Kd [2]: 290 ± 14 µM

Nc1ncnc2c1ncn2[C@@H]1O[C@H](CSCC[C@H](N)C(=O)O)[C@@H](O)[C@H]1O [AdoHcy, S-adenosylhomocysteine]
limit of detection, amount ([1]; 50 μL reactions): about 0.3 pmol | affinity with HpMTAN [3]: low p M affinity

EgtD (Mycobacterium tuberculosis CDC1551)
Km [4]: 330 ± 35 µM

Nc1ncnc2c1ncn2[C@@H]1O[C@H](COP(=O)(O)OP(=O)(O)OP(=O)(O)O)[C@@H](O)[C@H]1O [ATP, adenosine triphosphate]
Ki ([5]; read-out: Ki for substrate inhibition of ATP (CIAP)): 19 µM | Km ([5]; read-out: Km of ATP for CIAP): 20.5 µM | Ki [6]: 7.6 ± 1.8 µM | Km [7]: 0.9 ± 0.2 µM | affinity to MTAN-D198N / displacement of AdoHcy-TAMRA [1]: unable to displace AdoHcy-TAMRA

Nc1ncnc2c1ncn2[C@@H]1O[C@H](COP(=O)(O)OP(=O)(O)O)[C@@H](O)[C@H]1O [ADP, adenosine diphosphate]
affinity to MTAN-D198N / displacement of AdoHcy-TAMRA [1]: M affinity

C[S+](CC[C@H](N)C(=O)O)C[C@H]1O[C@@H](n2cnc3c(N)ncnc32)[C@H](O)[C@@H]1O (stereo partly drawn) [AdoMet, S-adenosyl methionine]
Kd [2]: 270 ± 20 µM

Source: patent US12018299B2, “Methods and kits for quantifying adenosine-containing molecules” (priority 2017, dated 2024)
